Assay results: US12202815B2, “Selective androgen receptor degrader (SARD) ligands and methods of use thereof” (priority 2018, dated 2025)
Several values for one entry are separate records, joined by “and”; a condition that tells them apart may be missing. Equal entries are not always repeated. Entries after “also recorded” stand apart in the source; their conditions may differ. Where two headings read alike, the source gives them in different places.

How the values were obtained:
>160 GPCR's = assay: gpcrMAX panel, PathHunter beta-arrestin antagonist primary screen; assay type: cell-based
Description: The assays were performed utilizing the PathHunter beta-arrestin enzyme fragment complementation (EFC) technology.
The PathHunter® β-Arrestin assay monitors the activation of a GPCR in a homogenous, non-imaging assay format using a technology developed by DiscoveRx called Enzyme Fragment Complementation (EFC) with β-galactosidase (β-Gal) as the functional reporter. […] EA is fused to β-Arrestin and ED is fused to the GPCR of interest. When the GPCR is activated and β-Arrestin is recruited to the receptor, ED and EA complementation occurs, restoring β-Gal activity which is measured using chemiluminescent PathHunter® Detection Reagents.
PathHunter cell lines were expanded from freezer. Cells were seeded in a total volume of 20 μL into white walled, 384-well microplates and incubated at 37° C. for the appropriate time prior to testing.
Intermediate dilution of sample stocks was performed to generate 5× sample in assay buffer. […]
Microplates were read following signal generation with a PerkinElmer Envision™ instrument for chemiluminescent signal detection.
Compound activity was analyzed using CBIS data analysis suite (ChemInnovation, CA). For antagonist mode assays, percentage inhibition was calculated using the following formula: % Inhibition=100%×(1−(mean RLU of test sample−mean RLU of vehicle control)/(mean RLU of EC80 control−mean RLU of vehicle control) [where RLU is relative light unit]).

in vivo = settings: male, Sprague Dawley, rat, 20 mpk
[1] = Pharmacokinetics in male Sprague Dawley rats (oral 7 days, iv Day 1); settings: male, Sprague Dawley, rat, in vivo
Description: At initial dosing, the animals were 12 weeks of age. The animals were group housed (up to three animals/cage/group) in polycarbonate cages with hardwood chip bedding. […] Water was provided fresh daily, ad libitum. […] As necessary, the 12-hour dark cycle was interrupted to accommodate study procedures. […] Individual doses were calculated based on body weights recorded on Day 1 and Day 7 of dose administration. […] A single intravenous dose was administered via a tail vein and blood sample on Day 1.
Animals were weighed at the time of animal selection and on Day 1 and Day 7 of dose administration.
Centrifugation began within 1 hour of collection. Plasma was placed into 96-well tubes with barcode labels. Plasma was maintained on dry ice prior to storage at approximately −70° C. Drug concentrations were measured by established chromatography/mass spectrometry (LC-MS/MS) methods.

[2] = High dose Hershberger experiment, 7 days oral; assay type: in vivo, Sprague Dawley rat; settings: for Body wt. on sac. day / Day 0 body wt.: individual animals
Description: Body weights were recorded on day 0 and day 7 (Table 4B). On day 7, animals were sacrificed and organs were observed.

GSK3A = molecular target: T1, GSK3A (Homo sapiens, UniProt P49840); assay: KINOMEscan competition binding assay; settings: lower numbers indicate stronger hits
T1 construct: T7 phage fusion or DNA label for qPCR; purchased DiscoveRx
T1 sequence (P49840 whole entry, the tested form may be a part): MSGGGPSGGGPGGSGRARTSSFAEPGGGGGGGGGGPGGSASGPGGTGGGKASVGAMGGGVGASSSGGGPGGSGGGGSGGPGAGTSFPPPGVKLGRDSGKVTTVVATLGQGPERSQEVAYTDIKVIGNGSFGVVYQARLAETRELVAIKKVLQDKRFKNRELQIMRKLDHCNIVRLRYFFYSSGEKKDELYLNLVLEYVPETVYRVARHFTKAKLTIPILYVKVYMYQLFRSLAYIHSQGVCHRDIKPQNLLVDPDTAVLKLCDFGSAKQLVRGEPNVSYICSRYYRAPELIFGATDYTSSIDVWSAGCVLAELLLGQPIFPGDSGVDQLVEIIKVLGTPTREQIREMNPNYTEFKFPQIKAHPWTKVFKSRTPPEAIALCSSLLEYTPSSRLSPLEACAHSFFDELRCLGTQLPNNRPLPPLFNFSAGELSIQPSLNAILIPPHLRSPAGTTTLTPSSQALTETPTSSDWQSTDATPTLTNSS
Description: (§1) Screening “hits” are identified by measuring the amount of kinase captured in test versus control samples by using a quantitative, precise and ultra-sensitive qPCR method that detects the associated DNA label.
(§2) For most assays, kinase-tagged T7 phage strains were grown in parallel in 24-well blocks in an E. coli host derived from the BL21 strain. […] The lysates were centrifuged (6,000×g) and filtered (0.2 μm) to remove cell debris. The remaining kinases were produced in HEK-293 cells and subsequently tagged with DNA for qPCR detection. […] The liganded beads were blocked with excess biotin and washed with blocking buffer (SeaBlock (Pierce), 1% BSA, 0.05% Tween 20, 1 mM DTT) to remove unbound ligand and to reduce non-specific phage binding. […] Test compounds were prepared as 40× stocks in 100% DMSO and directly diluted into the assay. All reactions were performed in polypropylene 384-well plates in a final volume of 0.02 ml. […] The kinase concentration in the eluates was measured by qPCR.

RLM metabolism half-life = assay type: in vitro ADME; settings: rat liver microsomes
Description: (§3) The assay was done in a final volume of 0.5 ml in duplicates (n=2). […] After pre-incubation, reaction was started by addition of 1 mM NADPH (pre-incubated at 37° C.). Incubations were carried out in triplicate and at various time-points (0, 5, 10, 15, 30 and 60 minutes) 100 μl aliquots were removed and quenched with 100 μl of acetonitrile containing internal standard. Samples were vortex mixed and centrifuged at 4000 rpm for 10 minutes. The supernatants were transferred to 96 well plates and submitted for LC-MS/MS analysis. As control, sample incubations done in absence of NADPH were included. From % PCR (% Parent Compound Remaining), rate of compound disappearance is determined (slope) and in vitro CLint (μl/min/mg protein) was calculated.

MYLK = molecular target: T2, MYLK (Homo sapiens, UniProt Q15746); assay: KINOMEscan competition binding assay; settings: lower numbers indicate stronger hits
T2 construct: T7 phage fusion or DNA label for qPCR; purchased DiscoveRx
T2 sequence (Q15746 whole entry, the tested form may be a part): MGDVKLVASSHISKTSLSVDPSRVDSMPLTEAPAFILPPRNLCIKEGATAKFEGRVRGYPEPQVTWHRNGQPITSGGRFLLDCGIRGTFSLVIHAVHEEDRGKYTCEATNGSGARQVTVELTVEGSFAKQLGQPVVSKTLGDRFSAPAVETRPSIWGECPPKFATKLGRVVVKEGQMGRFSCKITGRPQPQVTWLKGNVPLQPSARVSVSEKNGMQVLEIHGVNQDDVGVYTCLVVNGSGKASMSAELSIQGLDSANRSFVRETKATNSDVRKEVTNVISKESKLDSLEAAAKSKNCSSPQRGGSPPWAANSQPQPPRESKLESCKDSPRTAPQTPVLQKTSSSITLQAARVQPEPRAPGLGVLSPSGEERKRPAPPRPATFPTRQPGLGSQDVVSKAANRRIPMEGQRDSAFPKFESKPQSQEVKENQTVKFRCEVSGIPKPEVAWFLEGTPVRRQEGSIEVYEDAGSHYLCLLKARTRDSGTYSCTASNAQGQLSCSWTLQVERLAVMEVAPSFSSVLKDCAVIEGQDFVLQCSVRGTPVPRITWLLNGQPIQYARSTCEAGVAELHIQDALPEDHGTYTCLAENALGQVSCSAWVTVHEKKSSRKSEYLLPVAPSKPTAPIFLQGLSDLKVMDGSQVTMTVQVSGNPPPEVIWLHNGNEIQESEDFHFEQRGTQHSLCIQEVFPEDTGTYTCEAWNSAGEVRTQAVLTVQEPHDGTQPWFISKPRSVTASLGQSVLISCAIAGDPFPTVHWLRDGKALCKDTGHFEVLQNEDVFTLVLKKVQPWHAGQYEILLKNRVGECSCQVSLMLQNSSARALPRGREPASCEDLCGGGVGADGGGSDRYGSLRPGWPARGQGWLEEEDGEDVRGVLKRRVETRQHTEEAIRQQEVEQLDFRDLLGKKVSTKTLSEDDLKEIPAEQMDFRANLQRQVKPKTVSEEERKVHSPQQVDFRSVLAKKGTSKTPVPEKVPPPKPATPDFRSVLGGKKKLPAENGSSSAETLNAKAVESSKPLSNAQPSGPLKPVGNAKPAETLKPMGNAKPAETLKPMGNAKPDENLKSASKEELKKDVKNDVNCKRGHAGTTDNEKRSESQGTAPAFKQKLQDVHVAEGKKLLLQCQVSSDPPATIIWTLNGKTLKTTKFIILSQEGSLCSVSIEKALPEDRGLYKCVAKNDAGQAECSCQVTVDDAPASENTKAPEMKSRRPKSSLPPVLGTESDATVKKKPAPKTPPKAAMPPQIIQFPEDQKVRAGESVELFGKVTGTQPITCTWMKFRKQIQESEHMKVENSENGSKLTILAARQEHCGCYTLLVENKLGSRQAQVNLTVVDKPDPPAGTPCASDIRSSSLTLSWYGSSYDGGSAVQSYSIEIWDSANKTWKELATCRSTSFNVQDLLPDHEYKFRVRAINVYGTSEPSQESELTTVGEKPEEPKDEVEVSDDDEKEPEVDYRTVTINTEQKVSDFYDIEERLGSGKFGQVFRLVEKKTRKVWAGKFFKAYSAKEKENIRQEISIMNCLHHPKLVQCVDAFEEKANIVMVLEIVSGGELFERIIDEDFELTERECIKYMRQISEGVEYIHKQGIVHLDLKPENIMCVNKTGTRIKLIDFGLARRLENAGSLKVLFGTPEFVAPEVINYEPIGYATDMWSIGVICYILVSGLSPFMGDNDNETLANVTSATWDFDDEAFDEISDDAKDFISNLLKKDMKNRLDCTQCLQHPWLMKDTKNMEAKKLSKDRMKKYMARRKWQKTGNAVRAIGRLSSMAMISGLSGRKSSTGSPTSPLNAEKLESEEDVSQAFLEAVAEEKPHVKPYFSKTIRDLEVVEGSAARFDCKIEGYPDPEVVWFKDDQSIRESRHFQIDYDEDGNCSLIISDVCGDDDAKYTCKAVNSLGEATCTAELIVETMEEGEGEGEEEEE
Description: as §1, §2

[3] = for Conc. 1065: individual rat serum
[4] = assay type: in vitro ADME; settings: human liver microsomes
Description: as §3

[5] = test system: >450 human kinases and mutant variants; assay: KINOMEscan panel cross-reactivity profile; assay type: binding; settings: panel of >460 kinases and mutants
Description: as §1, §2

[6] = test system: MDVR (enzalutamide-resistant VCaP prostate cancer cells); assay: MDVR xenograft in SRG rats, 30 days oral dosing; settings: rat, in vivo
Description: Male Sprague Dawley Rag2−/−; Il2rg−/− (SRG) rats were housed in group of three rats/cage. They were provided with food and water ad libitum and were maintained in a 12 hour light/dark cycle.
Cell inoculations were carried out in a Class II/A2 biosafety cabinet. The surgical space was cleaned with Clidox® and sterile drapes were placed on the surface. The animals were anesthetized using inhaled isoflurane. Prior to injection, the hind flank was shaved and cleaned with alcohol prep pads. Animals were placed back in their home cage and monitored until they recovered and sternal recumbency was observed.
Cell inoculation: All animals were inoculated with a total volume of 500 μL subcutaneously in the left hind flank. The inoculation suspension consisted of 250 μL of cell suspension mixed with 250 μL of Matrigel, diluted to 10 mg/mL working solution with DMEM, which was mixed on ice immediately by pipetting the cells into the Matrigel using a p1000 micropipette fitted with a sterile aerosol resistant tip prior to injection. The final concentration of Matrigel was 5 mg/mL. […] Each needle/syringe was used for only 1 animal.
SARDs were dissolved at 5-, 10-, or 15 mg/mL in vehicle in a biosafety cabinet using sterile reagents and consumables.
One-way ANOVA and Tukey's post-hoc test were used to compare the difference in percent change in body weight among treatment groups. […]

C[C@](O)(Cn1cc(C#N)cn1)C(=O)Nc1cnc(C#N)c(C(F)(F)F)c1 [Compound 1065, (S)-3-(4-cyano-1H-pyrazol-1-yl)-N-(6-cyano-5-(trifluoromethyl)pyridin-3-yl)-2-hydroxy-2-methylpropanamide]
GPCR cross-reactivity (in words) (>160 GPCR's): no GPCR was inhibited by 50%; also recorded: No GPCR was inhibited by >50%
concentration at 30 h (in vivo): 561 nM
AUC0-24 ([1]; iv, 5 mg/kg): 31800 ng·h/mL
AUC(0-inf) ([1]; iv, 5 mg/kg): 40700 ng·h/mL
AUC(0-t) ([1]; iv, 5 mg/kg): 31800 ng·h/mL
C0 ([1]; iv, 5 mg/kg): 2510 ng/mL
Cmax ([1]; iv, 5 mg/kg): 2600 ng/mL
DN AUC0-24 ([1]; iv, 5 mg/kg): 6360
Tmax ([1]; iv, 5 mg/kg): 0.5 h
Vd ([1]; iv, 5 mg/kg): 1.86 L/kg
clearance ([1]; iv, 5 mg/kg): 2.05 mL/min/kg
half-life ([1]; iv, 5 mg/kg): 10.5 h
AUC(0-t) ([1]; po, 1 mg/kg): 7300 ng·h/mL
AUC0-24 ([1]; po, 1 mg/kg/day): 7300 ng·h/mL
AUC(0-t) ([1]; po, 1 mg/kg/day): 7300 ng·h/mL
Cmax ([1]; po, 1 mg/kg/day): 458 ng/mL
DN AUC0-24 ([1]; po, 1 mg/kg/day): 7300
Tmax ([1]; po, 1 mg/kg/day): 6 h
AUC(0-t) ([1]; po, 5 mg/kg): ~35000 ng·h/mL
AUC0-24 ([1]; po, 5 mg/kg/day): 34900 ng·h/mL
AUC(0-t) ([1]; po, 5 mg/kg/day): 34900 ng·h/mL
Cmax ([1]; po, 5 mg/kg/day): 2220 ng/mL
DN AUC0-24 ([1]; po, 5 mg/kg/day): 6980
Tmax ([1]; po, 5 mg/kg/day): 6 h
AUC0-24 ([1]; po, 10 mg/kg/day): 59500 ng·h/mL
AUC(0-t) ([1]; po, 10 mg/kg/day): 59500 ng·h/mL
Cmax ([1]; po, 10 mg/kg/day): 3550 ng/mL
DN AUC0-24 ([1]; po, 10 mg/kg/day): 5950
Tmax ([1]; po, 10 mg/kg/day): 6 h
AUC(0-t) ([1]; po, 20 mg/kg): 102000 ng·h/mL
AUC0-24 ([1]; po, 20 mg/kg/day): 102000 ng·h/mL
AUC(0-t) ([1]; po, 20 mg/kg/day): 102000 ng·h/mL
Cmax ([1]; po, 20 mg/kg/day): 5550 ng/mL
DN AUC0-24 ([1]; po, 20 mg/kg/day): 5120
Tmax ([1]; po, 20 mg/kg/day): 6 h
gross pathology (in words) ([2]; 100 and 200 mpk, 7 days): no gross pathology
Body wt. on sac. day ([2]; 100 mpk oral 7 days): 475 g and 333 g and 292 g
Day 0 body wt. ([2]; 100 mpk oral 7 days): 404 g and 280 g and 245 g
Body wt. on sac. day ([2]; 200 mpk oral 7 days): 326 g and 313 g and 424 g
Day 0 body wt. ([2]; 200 mpk oral 7 days): 270 g (2×) and 440 g
Percent Control (GSK3A): 6.4%
RLM Metebolism (H.L. min) (RLM metabolism half-life): 84 min
Percent Control (MYLK): 45%
Conc. 1065 ([3]; 1 mg/kg): 81.58 nM and 87.25 nM and 120.1244 nM and 134.5505 nM and 129.9323 nM
Conc. 1065 ([3]; 5 mg/kg): 967.3936 nM and 798.7984 nM and 630.4879 nM and 691.1901 nM and 485.4264 nM
Conc. 1065 ([3]; 10 mg/kg): 637.641 nM and 915.1312 nM and 824.8076 nM and 681.9936 nM and 795.917 nM
Conc. 1065 ([3]; 20 mg/kg): 1286.902 nM and 1298.179 nM and 1360.687 nM and 1397.834 nM and 1193.986 nM
Serum Conc. ([3]; Table 2, rats 20 mg/kg, 24-30 hours after last dose): 561 nM
Serum Conc. ([3]; Table 3, 20 mg/kg Hershberger): 561 nM
serum drug level (bioavailability) ([3]; rats dosed at 20 mg/kg): 561 nM
HLM Metabolism (H.L. min) [4]: STABLE
HLM % metabolized after 60 min ([4]; 60 min): 0%
number of kinases bound (<50% of Percent of Control) [5]: 2
potency vs 1002 in inhibiting enzalutamide-resistant prostate cancer (in words) [6]: approximately two fold more potent than 1002
